Test results as given in publication PMC7619385 (ACS infectious diseases, 2025).
Like-named read-outs stand apart in the source and are kept apart here.

How the values were obtained:
[1] = molecular target: T1, LmxCLK1 (Leishmania mexicana, UniProt E9AMP2); assay: biochemical; assay type: binding
T1 sequence (E9AMP2 1-422): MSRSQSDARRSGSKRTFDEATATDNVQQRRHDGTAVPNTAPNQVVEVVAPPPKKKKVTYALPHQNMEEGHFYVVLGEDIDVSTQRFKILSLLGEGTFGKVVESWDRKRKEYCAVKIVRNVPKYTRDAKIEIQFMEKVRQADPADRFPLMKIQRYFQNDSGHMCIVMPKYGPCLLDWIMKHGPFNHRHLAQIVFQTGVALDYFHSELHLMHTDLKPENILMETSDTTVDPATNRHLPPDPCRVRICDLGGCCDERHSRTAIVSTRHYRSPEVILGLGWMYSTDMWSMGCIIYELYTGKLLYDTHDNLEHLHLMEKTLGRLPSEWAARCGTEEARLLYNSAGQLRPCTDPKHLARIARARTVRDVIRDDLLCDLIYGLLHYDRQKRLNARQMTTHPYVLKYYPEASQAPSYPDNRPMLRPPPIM

[2] = molecular target: NLuc::LmxCLK1 (Leishmania mexicana, UniProt E9AMP2); assay: cell-based; assay type: cell-based; settings: for Target occupancy Run 1 / Target occupancy Run 2 / Target occupancy Average: 10 µM compound, tracer SV366, promastigotes; for Target occupancy Average: mean of two experiments
Method: All compounds were tested at a fixed concentration of 10 µM to enable direct comparison of their target occupancy in live cells.
Serially diluted probes (5 µL) were added to 85 µL of cells in culture media or 85 µL of purified protein. Final well volumes were adjusted to 100 µL with sterile Opti-MEM™ I Reduced Serum Medium (Thermo-Scientific) – for wells containing cells; or Kinase Buffer - for wells containing purified protein. For tracer displacement assays, samples were prepared as above, but final volume was brought to 100 µL by addition of vehicle or serially-diluted test compounds. Final DMSO concentration in these assays was 1%. […] Light emissions at 460+10 nm (BRET donor) and at 610+20 nm (BRET acceptor) were sequentially recorded (integration time = 0.5 s, gain = 3600) using a luminometer (BMG LABTECH Clariostar or Biotek Synergy HT). BRET values are reported in milli-BRET (mBRET) units (mBU), obtained by dividing the acceptor luminescence by the donor luminescence and multiplying the result by a factor of 1,000. BRET values were converted to blank-corrected probe occupancies (%) according to equation [1]: (1) Probeoccupancy(%)=X−Z/Y−Z×100 where X = mBRET value in the presence of the test compound and the probe, Y = mBRET value in the presence of probe only, and Z = mBRET value in the absence of probe and test compound. […]

[3] = DSF, 10 µM compound, 2 µM LmxCLK1, Run 1, read-out: ΔTm Run 1
[4] = DSF, 10 µM compound, 2 µM LmxCLK1, Run 2, read-out: ΔTm Run 2
[5] = DSF, 10 µM compound, 2 µM LmxCLK1, mean of two runs, read-out: ΔTm Average
[6] = DSF, 10 µM compound, 2 µM LmxCLK1, Run 1
[7] = DSF, 10 µM compound, 2 µM LmxCLK1, Run 2
[8] = DSF, 10 µM compound, 2 µM LmxCLK1, mean of two runs

| SMILES | ΔTm at 10 µM [1, 3] | ΔTm at 10 µM [1, 4] | ΔTm at 10 µM [1, 5] | ΔTm Run 1 [1, 6] | ΔTm Run 2 [1, 7] | ΔTm Average [1, 8] | also measured |
| --- | --- | --- | --- | --- | --- | --- | --- |
| Cn1cnc(N)c2ncnc1-2 [3-Methyladenine] | 0.2 °C | 0 °C | 0.1 °C |  |  |  | receptor occupancy at 10 µM ([2]; read-out: Target occupancy Average): -2.2%; receptor occupancy at 10 µM ([2]; read-out: Target occupancy Run 1): 2.8%; receptor occupancy at 10 µM ([2]; read-out: Target occupancy Run 2): -7.1% |
| N#Cc1c(O)c2c(-c3ccc(-c4ccccc4O)cc3)csc2[nH]c1=O [A-769662] |  |  |  |  |  |  | ΔTm Average [1]: -0.1; ΔTm Run 1 [1]: -0.1; ΔTm Run 2 [1]: 0 °C; Target occupancy Run 1 [2]: 1.2%; Target occupancy Run 2 [2]: -1.3%; Target occupancy Average [2]: 0.0% |
| C[C@H](Nc1ncnc2nc[nH]c12)c1cc2cccc(Cl)c2c(=O)n1-c1ccccc1 [IPI-145 (INK1197)] |  |  |  |  |  |  | Target occupancy Run 1 [2]: -2.8%; Target occupancy Run 2 [2]: 0.6%; Target occupancy Average [2]: -1.1% |
| CC(C)(C)c1cc(/C=C(\C#N)C(N)=S)cc(C(C)(C)C)c1O [Tyrphostin AG 879] | -0.1 °C | -0.2 °C | -0.2 °C |  |  |  |  |
| COc1cc2ncc(-c3ccccc3)nc2cc1OC [Tyrphostin AG 1296] |  |  |  | 0.3 °C | 0.1 °C | 0.2 °C |  |
| CCO.N#CC(=C(/N)Sc1ccccc1N)/C(C#N)=C(\N)Sc1ccccc1N [U0126-EtOH] |  |  |  |  |  |  | ΔTm Average [1]: -0.1; ΔTm Run 1 [1]: -0.4; ΔTm Run 2 [1]: 0.1 °C |
| CNCc1ccc(-c2cc(-c3nc(-c4ccc(S(=O)(=O)C(C)C)cc4)cnc3N)on2)cc1 [VE-822] | 0.6 °C | 0.1 °C | 0.4 °C |  |  |  |  |
| Cc1cc(Nc2cc(N3CCN(C)CC3)nc(Sc3ccc(NC(=O)C4CC4)cc3)n2)n[nH]1 [VX-680 (Tozasertib)] |  |  |  | -0.3 °C | -0.4 °C | -0.3 °C |  |
| NC(=O)c1ccc(N(C(N)=O)c2c(F)cccc2F)nc1-c1ccc(F)cc1F [VX-702] | 0.3 °C | -0.2 °C | 0 °C |  |  |  |  |
| O=c1ncn2nc(Sc3ccc(F)cc3F)ccc2c1-c1c(Cl)cccc1Cl [VX-745] | 0.4 °C | 0.2 °C | 0.3 °C |  |  |  |  |
| COc1cc2/c(=N/c3ccc(Br)cc3F)nc[nH]c2cc1OCC1CCN(C)CC1 [Vandetanib (ZD6474)] |  |  |  | 0.0 °C | -0.1 °C | -0.1 °C |  |
| Cl.Cl.Clc1ccc(Nc2nnc(Cc3ccncc3)c3ccccc23)cc1 [Vatalanib (PTK787) 2HCl] |  |  |  | -0.2 °C | 0.0 °C | -0.1 °C |  |
| CCCS(=O)(=O)Nc1ccc(F)c(C(=O)c2c[nH]c3ncc(-c4ccc(Cl)cc4)cc23)c1F [Vemurafenib (PLX4032)] |  |  |  | -0.1 °C | -0.1 °C | -0.1 °C |  |
| CC[C@@H]1C(=O)N(C)c2cnc(Nc3ccc(C(=O)N[C@H]4CC[C@H](N5CCN(CC6CC6)CC5)CC4)cc3OC)nc2N1C(C)C [Volasertib (BI 6727)] |  |  |  | 0.3 °C | 0.0 °C | 0.2 °C |  |
| COc1ccc(N(C(=O)Oc2c(C)cccc2C)c2ccnc(Nc3ccc(N4CCN(C)CC4)cc3)n2)c(OC)c1 [WH-4-023] |  |  |  |  |  |  | ΔTm Average [1]: -0.3; ΔTm Run 1 [1]: -0.4; ΔTm Run 2 [1]: -0.2 |
| COC(=O)Nc1ccc(-c2nc(N3CCOCC3)c3cnn(C4CCN(C(=O)OC)CC4)c3n2)cc1 [WYE-354] |  |  |  | -0.1 °C | -0.2 °C | -0.1 °C |  |
